From patent US20090247559A1 (Exelixis, Inc., priority 2007, published 2009)

Key:
[1] = biological target: CK2 (Homo sapiens, UniProt P68400); test: CK2 inhibition, biochemical chemiluminescence holoenzyme assay (Kinase Glo, IC50 determination); settings: Table 1 activity class; symbol given only if active; read-out: CK2 IC50 (Activity C)
Procedure, shortened: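 Holoenzyme CK2 assay; compounds pre-incubated with substrate and enzyme, then reacted 150 min at 24-27° C. Remaining ATP measured as luminescence with Kinase Glo, and IC50 derived from the signal.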

[2] = biological target: PIM (PIM-1, PIM-2, and/or PIM-3); test: PIM-1, PIM-2 and PIM-3 inhibition, biochemical chemiluminescence assays (Kinase Glo, IC50 determination); settings: Table 1 activity class; PIM refers to PIM-1, PIM-2, and/or PIM-3; read-out: PIM IC50 (Activity B)

Sequence of CK2 (P68400 whole entry): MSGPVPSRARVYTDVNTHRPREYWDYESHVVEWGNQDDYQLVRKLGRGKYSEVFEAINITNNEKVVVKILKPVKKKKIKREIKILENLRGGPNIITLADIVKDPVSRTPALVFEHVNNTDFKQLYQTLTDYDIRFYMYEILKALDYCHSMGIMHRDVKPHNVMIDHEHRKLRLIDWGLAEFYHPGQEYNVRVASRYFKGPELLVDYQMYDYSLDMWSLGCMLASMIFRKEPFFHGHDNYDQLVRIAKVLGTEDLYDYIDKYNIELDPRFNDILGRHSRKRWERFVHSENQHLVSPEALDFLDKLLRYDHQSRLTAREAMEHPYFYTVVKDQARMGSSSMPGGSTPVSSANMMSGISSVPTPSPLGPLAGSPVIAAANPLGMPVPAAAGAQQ
Sequence of CK2 (P67870 whole entry partner): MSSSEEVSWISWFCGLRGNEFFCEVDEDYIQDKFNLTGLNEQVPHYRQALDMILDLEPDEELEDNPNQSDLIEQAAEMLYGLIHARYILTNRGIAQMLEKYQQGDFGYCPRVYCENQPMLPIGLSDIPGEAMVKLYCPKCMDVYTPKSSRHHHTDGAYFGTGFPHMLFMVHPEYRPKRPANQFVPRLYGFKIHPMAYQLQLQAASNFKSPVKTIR

IC50 [1] [µM]	IC50 [2] [µM]	SMILES
< 10	< 10	CCN1C[C@@H]2C[C@H]1CN2Cc1nc2c(oc3ccc(Br)cc32)c(=O)[nH]1 [Compound 295, 8-bromo-2-{[(1S,4S)-5-ethyl-2,5-diazabicyclo[2.2.1]hept-2-yl]methyl}[1]benzofuro[3,2-d]pyrimidin-4(3H)-one]
< 10	< 10	O=C1CC(O)CN1Cc1nc2c(oc3ccc(Br)cc32)c(=O)[nH]1 (stereo not shown) [Compound 286, 8-bromo-2-[(4-hydroxy-2-oxopyrrolidin-1-yl)methyl][1]benzofuro[3,2-d]pyrimidin-4(3H)-one]
< 10	< 10	CC(=O)Nc1ccc(C(=O)Nc2ccc(Cl)c(-c3nc4c(oc5ccc(Br)cc54)c(=O)[nH]3)c2)cc1 [Compound 356, 4-(acetylamino)-N-[3-(8-bromo-4-oxo-3,4-dihydro[1]benzofuro[3,2-d]pyrimidin-2-yl)-4-chlorophenyl]benzamide]
< 10	< 10	CC(C)(C)OC(=O)N1CCOC(c2nc3c(oc4ccc(Br)cc43)c(=O)[nH]2)C1 (stereo not shown) [Compound 297, 1,1-Dimethylethyl 2-(8-bromo-4-oxo-3,4-dihydro[1]benzofuro[3,2-d]pyrimidin-2-yl)morpholine-4-carboxylate]
< 10	< 10	CN(C)Cc1ccc(-c2nc3c(oc4ccc(Br)cc43)c(=O)[nH]2)cc1 [Compound 358, 8-Bromo-2-{4-[(dimethylamino)methyl]phenyl}[1]benzofuro[3,2-d]pyrimidin-4(3H)-one]
< 10	< 10	Cn1nc(OC2CCNCC2)cc1-c1nc2c(oc3ccc(Br)cc32)c(=O)[nH]1 [Compound 351, 8-Bromo-2-[1-methyl-3-(piperidin-4-yloxy)-1H-pyrazol-5-yl][1]benzofuro[3,2-d]pyrimidin-4(3H)-one]
< 10	< 10	O=C(Nc1ccc(-c2nc3c(oc4ccc(Br)cc43)c(=O)[nH]2)c(Cl)c1)c1ccc(Cl)cc1 [Compound 279, N-[4-(8-bromo-4-oxo-3,4-dihydro[1]benzofuro[3,2-d]pyrimidin-2-yl)-3-chlorophenyl]-4-chlorobenzamide]
< 10	< 10	CNCc1ccc(-c2nc3c(oc4ccc(Br)cc43)c(=O)[nH]2)cc1 [Compound 382, 8-bromo-2-{4-[(methylamino)methyl]phenyl}[1]benzofuro[3,2-d]pyrimidin-4(3H)-one]
< 10	< 10	C[C@H](c1ccccc1)N1C[C@H](c2nc3c(oc4ccc(Br)cc43)c(=O)[nH]2)CC1=O [Compound 282, 8-bromo-2-{(3R)-5-oxo-1-[(1R)-1-phenylethyl]pyrrolidin-3-yl}[1]benzofuro[3,2-d]pyrimidin-4(3H)-one]

The remaining lines, values behind:

SMILES	IC50 [1] [µM]	IC50 [2] [µM]
CN1CCC(Cc2nc3c(oc4ccc(Br)cc43)c(=O)[nH]2)CC1 [Compound 244, 8-bromo-2-[(1-methylpiperidin-4-yl)methyl][1]benzofuro[3,2-d]pyrimidin-4(3H)-one]	< 10	< 10
Cc1cc(NC(=O)CN(C)C)ccc1-c1nc2c(oc3ccc(Br)cc32)c(=O)[nH]1 [Compound 62, N-[4-(8-bromo-4-oxo-3,4-dihydro[1]benzofuro[3,2-d]pyrimidin-2-yl)-3-methylphenyl]-N′2′,N′2′-dimethylglycinamide]	< 10	< 10
CN1CCN(c2ccc(CNCc3nc4c(oc5ccc(Br)cc54)c(=O)[nH]3)cc2)CC1 [Compound 4, 8-bromo-2-[({[4-(4-methylpiperazin-1-yl)phenyl]methyl}amino)methyl][1]benzofuro[3,2-d]pyrimidin-4(3H)-one]	< 10	< 10
CN(Cc1nc2c(oc3ccc(Br)cc32)c(=O)[nH]1)c1ccccc1Cl [Compound 18, 8-bromo-2-{[(2-chlorophenyl)(methyl)amino]methyl}[1]benzofuro[3,2-d]pyrimidin-4(3H)-one]	< 10	< 10
CC(C)(C)OC(=O)NC1CCC(c2nc3c(oc4ccc(Br)cc43)c(=O)[nH]2)CC1 (stereo not shown) [Compound 222, 1,1-Dimethylethyl [4-(8-bromo-4-oxo-3,4-dihydro[1]benzofuro[3,2-d]pyrimidin-2-yl)cyclohexyl]carbamate]	< 10	< 10
CN(C)CCCN1CCN(c2nc3c(oc4ccc(Br)cc43)c(=O)[nH]2)CC1 [Compound 246, 8-bromo-2-{4-[3-(dimethylamino)propyl]piperazin-1-yl}[1]benzofuro[3,2-d]pyrimidin-4(3H)-one]	< 10	< 10
O=c1[nH]c(CN2CC[C@H](O)C2)nc2c1oc1ccccc12 [Compound 204, 2-{[(3S)-3-hydroxypyrrolidin-1-yl]methyl}[1]benzofuro[3,2-d]pyrimidin-4(3H)-one]	< 10	< 10
O=C(C1CCN(Cc2nc3c(oc4ccc(Br)cc43)c(=O)[nH]2)C1)N1CCOCC1 (stereo not shown) [Compound 267, 8-bromo-2-{[3-(morpholin-4-ylcarbonyl)pyrrolidin-1-yl]methyl}[1]benzofuro[3,2-d]pyrimidin-4(3H)-one]	< 10	< 10
O=c1[nH]c(CNc2ccccc2)nc2c1oc1ccc(Br)cc12 [Compound 16, 8-bromo-2-[(phenylamino)methyl][1]benzofuro[3,2-d]pyrimidin-4(3H)-one]	< 10	< 10
CN(C)c1ccc(-c2nc3c(oc4ccc(Br)cc43)c(=O)[nH]2)c(Cl)c1 [Compound 41, 8-bromo-2-[2-chloro-4-(dimethylamino)phenyl][1]benzofuro[3,2-d]pyrimidin-4(3H)-one]	< 10	< 10
Cc1cc(N)ccc1-c1nc2c(oc3ccc(Br)cc32)c(=O)[nH]1 [Compound 50, 2-(4-amino-2-methylphenyl)-8-bromo[1]benzofuro[3,2-d]pyrimidin-4(3H)-one]	< 10	< 10
O=c1[nH]c(-c2ccccc2Cl)nc2c1oc1ccc3ccccc3c12 [Compound 96, 10-(2-Chlorophenyl)naphtho[1′,2′:4,5]furo[3,2-d]pyrimidin-8(9H)-one]	< 10	< 10
CCN1CCN(Cc2nc3c(oc4ccc(Br)cc43)c(=O)[nH]2)CC1 [Compound 150, 8-bromo-2-[(4-ethylpiperazin-1-yl)methyl][1]benzofuro[3,2-d]pyrimidin-4(3H)-one]	< 10	< 10
COc1ccc(Br)c(-c2nc3c(oc4ccc(Br)cc43)c(=O)[nH]2)c1 [Compound 78, 8-bromo-2-[2-bromo-5-(methyloxy)phenyl][1]benzofuro[3,2-d]pyrimidin-4(3H)-one]	< 10	< 10
CC(C)(NCc1nc2c(oc3ccc(Br)cc32)c(=O)[nH]1)C(N)=O [Compound 177, N-2-[(8-bromo-4-oxo-3,4-dihydro[1]benzofuro[3,2-d]pyrimidin-2-yl)methyl]-2-methylalaninamide]	< 10	< 10
CC(=O)Nc1ccc(-c2nc3c(oc4ccc(Br)cc43)c(=O)[nH]2)cc1 [Compound 80, N-[4-(8-bromo-4-oxo-3,4-dihydro[1]benzofuro[3,2-d]pyrimidin-2-yl)phenyl]acetamide]	< 10	< 10
O=c1[nH]c(-c2cc(Cl)ccc2Cl)nc2c1oc1ccc(Br)cc12 [Compound 37, 8-Bromo-2-(2,5-dichlorophenyl)[1]benzofuro[3,2-d]pyrimidin-4(3H)-one]	< 10	< 10
